Reference: US20230321044A1, “TREATMENT OR PREVENTION METHOD FOR CHRONIC HEART FAILURE” (Japan Tobacco Inc., priority 2020, published 2023)
Entries after “also recorded” stand apart in the source; their conditions may differ.

Legend:
[1] = system: post-myocardial infarction heart failure rats; assay: Assessment of cardiac function in rats with post-myocardial infarction heart failure (Test Example 1); assay type: in vivo, rat
Procedure: Male SD rats (8-week old, Japan SLC, Inc.) were anesthetized with pentobarbital, then, under controlled mechanical ventilation, underwent thoracotomy and permanent ligation of the left anterior descending coronary artery to prepare rats with post-myocardial infarction heart failure. A sham-operated group was prepared by undergoing only thoracotomy in the same way to expose the heart. Two weeks later, vehicle (0.5% methylcellulose solution) or Compound 1 (3 mg/kg group or Ascending Dose group) was orally administered once daily to the group of post-myocardial infarction heart failure rat, and the vehicle was orally administered once daily to the sham-operated group. The dose for the Ascending Dose group was started with 3 mg/kg, increased to 6 mg/kg after two weeks and to 8 mg/kg after two more weeks, and maintained at 8 mg/kg thereafter. After eight weeks of administration, an ultrasonograph (Aplio 300, Toshiba Medical Systems Corporation) was used to measure the left ventricular ejection fraction, and Catheter-tipped micromanometer (Model SPR-320, Millar Inc.) was inserted into the left ventricle via the left carotid artery to measure the left ventricular end-diastolic pressure. For statistical analysis, Aspin-Welch t test was conducted between the sham-operated vehicle-administered group and the vehicle-administered group of post-myocardial infarction heart failure rats. Steel’s multiple comparison test was conducted for the Compound 1 group to the vehicle group of post-myocardial infarction heart failure rats. The significance level was two-sided 5%. Form the results, it was confirmed that the vehicle-administered group of post-myocardial infarction heart failure rats developed HFrEF because the left ventricular ejection fraction was decreased and the left ventricular end-diastolic pressure was increased, compared with the sham-operated vehicle-administered group.

[2] = system: hypertensive heart failure rats; assay: Assessment of cardiac function in rats with hypertensive heart failure (Test Example 2); assay type: in vivo, rat
Procedure: Male DIS/Eis (Dahl-Iwai S) rats (Dahl rats) (7-week old, Japan SLC, Inc.) were fed a high-salt diet (MF 8% sodium chloride-adjusted feed, Oriental Yeast Co., ltd.) to prepare hypertensive heart failure rats. Normal controls were fed a normal diet (CRF-1 solid, Oriental Yeast Co., ltd.). Three weeks later, after confirmation of the development of pathological condition (hypertension or cardiomegaly), vehicle (0.5% methylcellulose solution) or Compound 1 (3 mg/kg group or Ascending Dose group) was orally administered to the hypertensive heart failure rat group once daily, and the vehicle was orally administered once daily to the normal control group. […] After five weeks of administration, an ultrasonograph (Aplio 300, Toshiba Medical Systems Corporation) was used to measure the left ventricular ejection fraction, and a non-invasive automated blood pressure measuring device (BP-98A, Softlon Co.,Ltd.) was used to measure the systolic blood pressure. After six weeks of administration, ADVantage P-V catheter (Model FTH-1918B-E318, Transonic Scisense Inc.) was inserted into the left ventricle from the apex to measure the left ventricular end-diastolic pressure. […] For statistical analysis, Student test or Aspin-Welch t test was conducted between the vehicle-administered normal control group and the vehicle-administered group of hypertensive heart failure rats. Dunnett’s multiple test was conducted for the Compound 1 group to the vehicle group of hypertensive heart failure rats. The significance level was two-sided 5%. Form the results, it was confirmed that the hypertensive heart failure rats developed HFpEF because the EDPVRβ and left ventricular end-diastolic pressure were increased whereas the left ventricular ejection fraction was not decreased, compared with the normal control group. […] Compound 1 also had no effect on the urine volume in the hypertensive heart failure rats.

C[C@H]1C(=O)NC[C@@H]1C(=O)Nc1cc(-c2cc(F)cc(OC(C)(C)C)c2)n(C(F)(F)F)n1 [Compound 1]
left ventricular ejection fraction ([1]; 3 mg/kg group, oral once daily, eight weeks, vs vehicle, FIG. 2): higher value | left ventricular ejection fraction ([1]; Ascending Dose group (3, then 6, then 8 mg/kg), oral once daily, eight weeks, vs vehicle, p < 0.05, FIG. 2): significantly increased | left ventricular ejection fraction ([1]; dose groups not distinguished (3 mg/kg or Ascending Dose), oral once daily, eight weeks): increased | left ventricular end-diastolic pressure ([1]; post-myocardial infarction heart failure rats, oral once daily, eight weeks, in comparison with the vehicle, FIG. 1): lower value; also recorded: suppressed | HFrEF improving effect ([1]; post-myocardial infarction heart failure rats, overall conclusion): improved HFrEF; also recorded: has an HFrEF improving effect | EDPVRβ (end-diastolic pressure-volume relationship β) ([2]; 3 mg/kg group, oral once daily, six weeks, vs vehicle, FIG. 4): lower value | EDPVRβ (end-diastolic pressure-volume relationship β) ([2]; Ascending Dose group (3, then 6, then 8 mg/kg), oral once daily, six weeks, vs vehicle, p < 0.05, FIG. 4): significantly reduced | EDPVRβ (end-diastolic pressure-volume relationship β) ([2]; dose groups not distinguished, oral once daily, six weeks): reduced | left ventricular end-diastolic pressure ([2]; hypertensive heart failure (Dahl) rats, oral once daily, six weeks, vs vehicle, p < 0.05 and p < 0.01, FIG. 3): significantly reduced | systolic blood pressure ([2]; hypertensive heart failure rats, after five weeks of administration, FIG. 6): had no effect | urine volume ([2]; hypertensive heart failure rats, in comparison with the vehicle, FIG. 7): did not affect; also recorded: had no effect | HFpEF improving effect ([2]; hypertensive heart failure rats, overall conclusion): has an HFpEF improving effect
